Values joined by “and” are separate entries in the source; they are usually repeats but may differ in a detail not shown here. Identical values can stand only once. Like-named read-outs stand apart in the source and are kept apart here.
Assays:
[1] = molecular target: receptor interacting protein 1 (RIP1); conditions: cited from earlier work; for IC50: RIP1 inhibitor potency
[2] = test system: indoleamine 2,3-dioxygenase (IDO); set-up: method as in PMID 23190609; conditions: cited from earlier work
[3] = test system: abdominal aortic aneurisms (elastase perfusion); set-up: method as in PMID 28186202; conditions: mice with aneurysm induced by elastase perfusion, cited from earlier work
[4] = set-up: method as in PMID 28946210; conditions: rat plasma, cited from earlier work
[5] = test system: receptor interacting protein 1 (RIP1); assay: RIP1 inhibition (necrostatin potency); format: biochemical; conditions: Nec-1s vs Nec-1
[6] = Nec-1s plasma levels in rats by HPLC-Q-TOF after i.v. bolus; format: in vivo, male Wistar rats; conditions: for concentration at 50 min: male, Wistar, rat, plasma, iv, 0.37 mg/kg
Procedure: The developed and validated HPLC-Q-TOF method was applied for the determination of real plasma concentrations of Nec-1s in 5 male Wistar rats after i.v. administration of a bolus dose of Nec-1s (0.37 mg/kg). The samples taken from each subject were prepared and analyzed in triplicate. […] The measured data were consistent to each other with plasma concentrations in the range of 319.81–466.52 nM, and mean value of 377.26 nM. The differences in the found concentrations can be explained by different metabolism in the studied animals.
A total of 11 male Wistar rats (250–300 g body weight) were housed under standard conditions with a controlled light/dark cycle (12/12 h) and temperature (22 °C ± 2 °C), and fed a standard diet and tap water ad libitum. The anesthetized animals (natrium pentobarbital 60 mg/kg, i.p.) were randomized in two groups to receive either vehicle (C, n = 6) or Nec-1s (N, n = 5) and blood was collected from the abdominal aorta 50-min after drug application (a bolus dose; 0.37 mg/kg, i.v.; diluted in 20% v/v DMSO) into EDTA-containing syringes (S-Monovette, Starstedt, Germany). To obtain plasma, the blood was centrifuged at 4 °C for 15 min at 4000× g. The aliquots of plasma were stored at −80 °C until further procedure.
An aliquot of plasma was thawed at laboratory temperature. Afterwards, the rat plasma (180 µL) was mixed with the internal standard solution (20 µL, 1.25 µg/mL of prednisone in 50% (v/v) methanol). […] The precipitated sample was vortexed for 5 min (2400 rpm) and then centrifuged for 10 min (15000× g; 4 °C). After the centrifugation, 800 µL of supernatant was transferred into another tube and evaporated to dryness under a gentle stream of nitrogen at ambient temperature. The residuals were reconstituted with 100 µL of mobile phase (25:75 mixture of acetonitrile and water containing 0.1% formic acid) and an aliquot of the solution (5 µL) was used for the HPLC-DAD-Q-TOF analysis.
All of the analyses were carried out on the chromatographic apparatus consisting of LC Agilent Infinity System (Agilent Technologies, Santa Clara, CA, USA) equipped with a gradient pump (1290 Bin Pump VL), an automatic injector (1260 HiPals), and column thermostat (1290 TCC; set at 4 °C). The LC system was hyphenated with a photodiode array detector (Infinity 1290 DAD), and quadrupole time-of-flight (Q-TOF) mass spectrometer (Agilent 6520 Accurate-Mass Q-TOF LC/MS) equipped with the electrospray ionization (ESI) source operated in a positive ionization mode. A computer with a MassHunter software (version MassHunter Workstation B.05.01, Agilent Technologies) was used to control the apparatus as well as acquire and process the data. The Q-TOF mass spectrometer was operated under following parameters: drying gas temperature 360 °C, drying gas flow 12 L/min, nebulizing gas pressure 60 psi, capillary voltage 5500 V, fragmentor voltage 125 V, skimmer voltage 65 V, OctopoleRFPeak 550 V, and collision gas N2. […] In the processing the exact (theoretical) masses of their [M + H]^+ (278.0691 for Nec-1s; 359.1853 for prednisone), and [M + Na]^+ (300.0510 for Nec-1s; 381.1672 for prednisone) adducts were used. For the MS spectra obtained by the analysis of the stock solutions of Nec-1s and prednisone see Figure 4. The theoretical and experimentally found masses of the Nec-1s and prednisone adducts were in a very good mutual agreement so that Q-TOF was suitable for an unambiguous confirmation of the identity of the analyzed compounds in the samples. The EIC were extracted with m/z expansion of ±10 ppm. In case of DAD detector, the peak areas of the analyte and IS were evaluated at the wavelength of 280 nm.
The chromatographic separation of the Nec-1s was achieved by using RP-C18 chromatographic column–Zorbax Extend-C18, 2.1 × 50 mm, 1.8 µm obtained from Agilent Technologies. A gradient elution of mobile phases consisting of 0.1% formic acid in LC-MS water (A) and 0.1% formic acid in acetonitrile (B) was used. […]

[7] = set-up: method as in PMID 23190609; conditions: cited from earlier work
[8] = set-up: method as in PMID 23190609; conditions: cited from earlier work; remark: listed apart in the source
[9] = individual rats N1-N5, 50 min after i.v. bolus dose 0.37 mg/kg, n = 3 analyses

Compound | IC50 [1] [µM] | effect on IDO [2] | aortic diameter vs control ([3]; p = 0.1) | concentration level at 5 min after i.v. administration ([4]; i.v., 5 min) [ng/mL] | concentration level at 1 h after i.v. administration ([4]; i.v., 1 h) [ng/mL] | concentration level at 8 h after i.v. administration ([4]; i.v., 8 h) [ng/mL] | concentration after 8 h, oral administration ([4]; oral, after 8 h) | peak concentration after oral administration ([4]; oral) [ng/mL] | time of peak concentration after oral administration ([4]; oral) [h] | capability to inhibit RIP1 [1] | inhibition activity relative to Nec-1 [5] [times] | Plasma Concentration (nM) [6, 9] | Plasma Concentration (ng/mL) [6, 9] | concentration at 50 min ([6]; 50 min after i.v. bolus dose 0.37 mg/kg, 5 male Wistar rats, read-out: plasma concentration, mean value of 5 rats) [nM] | concentration at 50 min ([6]; 50 min after i.v. bolus dose 0.37 mg/kg, 5 male Wistar rats, read-out: plasma concentrations, range over 5 rats) [nM] | concentration at 50 min ([6]; individual rats N1-N5, 50 min after i.v. bolus dose 0.37 mg/kg, n = 3 analyses, read-out: Plasma Concentration) [nM] | concentration at 50 min ([6]; individual rats N1-N5, 50 min after i.v. bolus dose 0.37 mg/kg, n = 3 analyses, read-out: Plasma Concentration (ng/mL)) [ng/mL] | aortic expansion ([3]; control 172.80%, p < 0.05) [%] | metabolic stability in comparison to Nec-1 [7] | in vivo and in vitro toxicity compared with Nec-1 [8]
CN1C(=O)C(Cc2c[nH]c3ccccc23)NC1=S (centres unmarked) [Nec-1, 5-(indol-3-ylmethyl)(2-thio-3-methyl)hydantoin] | 0.494 | concomitant inhibition of indoleamine 2,3-dioxygenase (IDO) | smaller but the difference was not statistically significant | 1733 | 617 | < 100 | undetectable | 648 | 1 |  |  |  |  |  |  |  |  |  |  | 
O=C1NC(=S)NC1Cc1c[nH]c2ccccc12 (centres unmarked) [Nec-1i] |  | found to be an IDO inhibitor |  |  |  |  |  |  |  | lacking the capability to inhibit RIP1 |  |  |  |  |  |  |  |  |  | 
CN1C(=O)NC(Cc2c[nH]c3c(Cl)cccc23)C1=O (centres unmarked) [Nec-1s, 5-((7-chloro-1H-indol-3-yl)methyl)-3-methyl-2,4-imidazolidinedione] | 0.21 | does not influence IDO |  |  |  |  |  |  |  |  | 2 | 327.43 nM and 398.08 nM and 319.81 nM and 466.52 nM | 90.93 ng/mL and 110.55 ng/mL and 88.81 ng/mL and 129.56 ng/mL | 377 | 320 to 467 | 374 | 104 | 64.12 | metabolically more stable | reduced
